Tests used:
Format in all cases: cell-based
[1] = system: human dermal fibroblasts CCC-ESF-1; experiment: Anti-fibrosis activity test: inhibition of proliferation of human dermal fibroblasts CCC-ESF-1 (CCK-8); conditions: Fibroblast
Summary of the method: (§1)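 Proliferation inhibition is measured by CCK-8 after cells plated at 2×10^4 cells/mL attach overnight (24 h) and then receive test compounds for 48 h at several concentrations, each in triplicate. Optical density at 450 nm gives IR = (1−Ai/Ao)×100%, from which IC50 is computed.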

[2] = system: human hepatic stellate cells LX-2; experiment: Anti-fibrosis activity test: inhibition of proliferation of human hepatic stellate cells LX-2 (CCK-8); conditions: Homo sapiens, 48 h
Summary of the method: as §1

[3] = system: cardiac fibroblast RAT-iCell-C002; experiment: Anti-fibrosis activity test: inhibition of proliferation of cardiac fibroblast RAT-iCell-C002 (CCK-8); conditions: Cardiac fibroblast, 48 h
Summary of the method: as §1

[4] = system: BHK-21 cells; experiment: Anti-fibrosis activity test: inhibition of BHK-21 cell proliferation (CCK-8); conditions: Mesocricetus auratus, BHK-21, 48 h
Summary of the method: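 Read-out: CCK-8 absorbance at 450 nm after 2 h, giving proliferation inhibition (1−Ai/Ao)×100% versus blank control, from which IC50 was derived. Cells had been treated with compounds for 48 h after 24 h adherence at 37° C. Pirfenidone served as positive control.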

[5] = system: human lung fibroblasts HFL1; experiment: Anti-fibrosis activity test: inhibition of proliferation of human lung fibroblasts HFL1 (CCK-8); conditions: Homo sapiens, HFL1, 48 h
Summary of the method: as §1

[6] = system: human embryonic lung fibroblast IMR-90; experiment: Anti-fibrosis activity test: inhibition of proliferation of human embryonic lung fibroblast IMR-90 (CCK-8)
Summary of the method: as §1

[7] = system: mouse macrophages (RAW264.7); experiment: Lipopolysaccharide-induced NO secretion in macrophages (Griess); conditions: Mus musculus, RAW264.7, 24 h, RAW264.7, LPS 1 μg/ml, a/b isomers given as first/second symbol, read-out: IC50 (μM), inhibition of lipopolysaccharide-induced NO secretion in macrophages
Summary of the method: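 Indomethacin and resveratrol served as positive controls while compounds were tested across concentrations on LPS-stimulated (1 μg/ml, 24 h) RAW264.7 cells. NO output was quantified colorimetrically (Griess, 548 nm).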

[8] = system: human fibrosarcoma cells HT-1080; experiment: Anti-fibrosis activity test: inhibition of proliferation of human fibrosarcoma cells HT-1080 (CCK-8); conditions: Homo sapiens, HT-1080, 48 h
Summary of the method: as §1

[9] = human dermal fibroblasts CCC-ESF-1, CCK-8, 48 hours
[10] = human hepatic stellate cells LX-2, CCK-8, 48 hours
[11] = cardiac fibroblast RAT-iCell-C002, CCK-8, 48 hours
[12] = CCK-8, 48 hours after administration
[13] = human lung fibroblasts HFL1, CCK-8, 48 hours
[14] = human embryonic lung fibroblast IMR-90, CCK-8, 48 hours
[15] = human fibrosarcoma cells HT-1080, CCK-8, 48 hours
[16] = Homo sapiens, CCC-ESF-1 cells, 48 h, CCK-8
[17] = Homo sapiens, IMR-90 cells, 48 h, CCK-8

Row | SMILES | IC50 [1, 9] [mM] | IC50 [2, 10] [mM] | IC50 [3, 11] [mM] | IC50 [4, 12] [mM] | IC50 [5, 13] [mM] | IC50 [6, 14] [mM] | IC50 [7] [µM] | IC50 [8, 15] [mM] | IC50 [1, 16] [mM] | IC50 ([2]; LX-2, 48 h, LX-2 cells, CCK-8) [mM] | IC50 ([3]; RAT-iCell-C002 cells, CCK-8) [mM] | IC50 ([4]; 48 h, CCK-8) [mM] | IC50 ([5]; HFL1 cells, 48 h, CCK-8) [mM] | IC50 [6, 17] [mM] | IC50 ([8]; HT-1080 cells, 48 h, CCK-8) [mM]
1 | O=C1c2c(nc3cc(Cl)ccc3c2OCc2ccccc2F)-c2cccn21 [Compound 504b, 6-chloro-9-((2-fluorobenzyl)oxy)-10H-pyrrolizino[1,2-b]quinolin-10-one] | 0.05 to 5 | 0.05 to 5 | 0.05 to 5 | 0.05 to 5 | 0.05 to 5 | 0.05 to 5 | 1 to 10 | 0.05 to 5 | – | – | – | – | – | – | –
2 | O=C1c2c(n(Cc3ccc(Cl)cc3)c3cc(Cl)ccc3c2=O)-c2cccn21 [Compound 508a, 6-Chloro-4-(4-chlorobenzyl)-9H-pyrrolizino[1,2-b]quinoline-9,10(4H)-dione] | 0.05 to 5 | 0.05 to 5 | 0.05 to 5 | 0.05 to 5 | 0.05 to 5 | 0.05 to 5 | 1 to 10 | 5 to 20 | – | – | – | – | – | – | –
3 | O=C1c2c(nc3cc(Cl)ccc3c2OCc2ccc(Cl)cc2)-c2cccn21 [Compound 508b, 6-chloro-9-((4-chlorobenzyl)oxy)-10H-pyrrolizino[1,2-b]quinolin-10-one] | 0.05 to 5 | 0.05 to 5 | 0.05 to 5 | 0.05 to 5 | 0.05 to 5 | 0.05 to 5 | 1 to 10 | < 0.05 | – | – | – | – | – | – | –
4 | Cc1ccc2[nH]c3c(c(=O)c2c1)-c1cccn1C3=O [Compound 777a, 9-Methyl-5H-pyrrolizino[2,1-b]quinoline-5,11(6H)-dione] | – | – | – | – | – | – | 10 to 50 | – | 0.05 to 5 | 0.05 to 5 | 0.05 to 5 | < 0.05 | 0.05 to 5 | 0.05 to 5 | 0.05 to 5
5 | Cc1ccc2nc3c(c(O)c2c1)-c1cccn1C3=O [Compound 777b, 11-hydroxy-9-methyl-5H-pyrrolizino[2,1-b]quinolin-5-one] | – | – | – | – | – | – | 1 to 10 | – | 0.05 to 5 | 0.05 to 5 | 0.05 to 5 | 0.05 to 5 | 0.05 to 5 | 0.05 to 5 | 0.05 to 5
6 | Cc1ccc2c(=O)c3c([nH]c2c1)C(=O)n1cccc1-3 [Compound 778a, 8-Methyl-5H-pyrrolizino[2,1-b]quinoline-5,11(6H)-dione] | – | – | – | – | – | – | 10 to 50 | – | 0.05 to 5 | 0.05 to 5 | 0.05 to 5 | 0.05 to 5 | 0.05 to 5 | 0.05 to 5 | 0.05 to 5
7 | Cc1ccc2c(O)c3c(nc2c1)C(=O)n1cccc1-3 [Compound 778b, 11-hydroxy-8-methyl-5H-pyrrolizino[2,1-b]quinolin-5-one] | – | – | – | – | – | – | 1 to 10 | – | 0.05 to 5 | 0.05 to 5 | 0.05 to 5 | 0.05 to 5 | 0.05 to 5 | 0.05 to 5 | 0.05 to 5
8 | Cc1cccc2c(=O)c3c([nH]c12)C(=O)n1cccc1-3 [Compound 779a, 7-Methyl-5H-pyrrolizino[2,1-b]quinoline-5,11(6H)-dione] | – | – | – | – | – | – | 10 to 50 | – | 0.05 to 5 | 0.05 to 5 | 0.05 to 5 | 0.05 to 5 | 0.05 to 5 | 0.05 to 5 | 0.05 to 5
9 | Cc1cccc2c(O)c3c(nc12)C(=O)n1cccc1-3 [Compound 779b, 11-hydroxy-7-methyl-5H-pyrrolizino[2,1-b]quinolin-5-one] | – | – | – | – | – | – | 1 to 10 | – | 0.05 to 5 | 0.05 to 5 | 0.05 to 5 | 0.05 to 5 | 0.05 to 5 | 0.05 to 5 | 0.05 to 5
10 | Cc1cc(C)c2[nH]c3c(c(=O)c2c1)-c1cccn1C3=O [Compound 780a, 7,9-Dimethyl-5H-pyrrolizino[2,1-b]quinoline-5,11(6H)-dione] | – | – | – | – | – | – | 10 to 50 | – | 0.05 to 5 | 0.05 to 5 | 0.05 to 5 | 0.05 to 5 | 0.05 to 5 | 0.05 to 5 | 0.05 to 5
11 | Cc1cc(C)c2nc3c(c(O)c2c1)-c1cccn1C3=O [Compound 780b, 11-hydroxy-7,9-dimethyl-5H-pyrrolizino[2,1-b]quinolin-5-one] | – | – | – | – | – | – | 1 to 10 | – | 0.05 to 5 | 0.05 to 5 | 0.05 to 5 | 0.05 to 5 | 0.05 to 5 | 0.05 to 5 | 0.05 to 5
12 | Cc1cc2[nH]c3c(c(=O)c2cc1C)-c1cccn1C3=O [Compound 781a, 8,9-Dimethyl-5H-pyrrolizino[2,1-b]quinoline-5,11(6H)-dione] | – | – | – | – | – | – | 10 to 50 | – | 0.05 to 5 | 0.05 to 5 | 0.05 to 5 | 0.05 to 5 | 0.05 to 5 | 0.05 to 5 | 0.05 to 5
13 | Cc1cc2nc3c(c(O)c2cc1C)-c1cccn1C3=O [Compound 781b, 11-hydroxy-8,9-dimethyl-5H-pyrrolizino[2,1-b]quinolin-5-one] | – | – | – | – | – | – | 1 to 10 | – | 0.05 to 5 | 0.05 to 5 | 0.05 to 5 | 0.05 to 5 | 0.05 to 5 | 0.05 to 5 | 0.05 to 5
14 | Cc1cc(C)c2c(=O)c3c([nH]c2c1)C(=O)n1cccc1-3 [Compound 782a, 8,10-Dimethyl-5H-pyrrolizino[2,1-b]quinoline-5,11(6H)-dione] | – | – | – | – | – | – | 10 to 50 | – | 0.05 to 5 | 0.05 to 5 | 0.05 to 5 | 0.05 to 5 | 0.05 to 5 | 0.05 to 5 | 0.05 to 5
15 | Cc1cc(C)c2c(O)c3c(nc2c1)C(=O)n1cccc1-3 [Compound 782b, 11-hydroxy-8,10-dimethyl-5H-pyrrolizino[2,1-b]quinolin-5-one] | – | – | – | – | – | – | 1 to 10 | – | 0.05 to 5 | 0.05 to 5 | 0.05 to 5 | 0.05 to 5 | 0.05 to 5 | 0.05 to 5 | 0.05 to 5
16 | Cc1ccc(C)c2c(=O)c3c([nH]c12)C(=O)n1cccc1-3 [Compound 783a, 7,10-Dimethyl-5H-pyrrolizino[2,1-b]quinoline-5,11(6H)-dione] | – | – | – | – | – | – | 1 to 10 | – | 0.05 to 5 | 0.05 to 5 | 0.05 to 5 | < 0.05 | 0.05 to 5 | 0.05 to 5 | 0.05 to 5
17 | Cc1ccc(C)c2c(O)c3c(nc12)C(=O)n1cccc1-3 [Compound 783b, 11-hydroxy-7,10-dimethyl-5H-pyrrolizino[2,1-b]quinolin-5-one] | – | – | – | – | – | – | 1 to 10 | – | 0.05 to 5 | 0.05 to 5 | 0.05 to 5 | 0.05 to 5 | 0.05 to 5 | 0.05 to 5 | 0.05 to 5

Source: patent US11040028B2, “Penicinotam derivative, preparation method and use thereof” (OCEAN UNIVERSITY OF CHINA, priority 2017, dated 2021)
